From DBAASP
Values after ≈ are worked out from the molar mass of the structure shown. Values joined by “and” are separate entries in the source; they are usually repeats but may differ in a detail not shown here. Equal entries are not always repeated. Values belong to the compound of their own block, whether it stands above or below them.

Columns and labels:
Experiment in all cases: ≥ marks a high value that may be exact or a test limit, other limits are often not marked, values filed in µg/mL are converted to µM
[1] = tested on: Staphylococcus epidermidis NBRC 12933
[2] = tested on: Bacillus megaterium ATCC 19213
[3] = tested on: Staphylococcus aureus NBRC 12732
[4] = tested on: Bacillus subtilis NBRC 3513
[5] = tested on: Salmonella enterica subsp. enterica serovar Typhimurium ATCC 14028
Azotobacter vinelandii = tested on: Azotobacter vinelandii
Escherichia coli 4530 = tested on: Escherichia coli 4530
[6] = tested on: Streptococcus pneumoniae ATCC 49619
[7] = tested on: Escherichia coli ATCC 25922
[8] = tested on: Enterobacter cloacae 2524
[9] = tested on: Enterobacter cloacae 6780
[10] = tested on: Klebsiella pneumoniae 913
[11] = tested on: Pseudomonas aeruginosa ATCC 27853
Escherichia coli 170 = tested on: Escherichia coli 170
[12] = tested on: Staphylococcus aureus ATCC 25923
[13] = tested on: Klebsiella pneumoniae 1625
Salmonella typhimurium = tested on: Salmonella typhimurium
[14] = tested on: Pseudomonas aeruginosa 4677
Acinetobacter baumannii = tested on: Acinetobacter baumannii
[15] = tested on: Klebsiella pneumoniae ST258
[16] = tested on: Pseudomonas aeruginosa IFO 12582
[17] = tested on: Staphylococcus aureus IFO 12732
[18] = tested on: Escherichia coli IFO 12734
[19] = tested on: Bacillus subtilis IFO 3134
Staphylococcus aureus = tested on: Staphylococcus aureus
Escherichia coli W160-37 = tested on: Escherichia coli W160-37
[20] = tested on: Listeria monocytogenes ATCC 19111
[21] = tested on: Staphylococcus aureus A170
[22] = tested on: Staphylococcus epidermidis
[23] = tested on: Candida tropicalis ATCC 37097
[24] = tested on: Staphylococcus aureus ATCC 29213
[25] = tested on: Klebsiella oxytoca ATCC 49131
[26] = tested on: Proteus vulgaris ATCC 49132
[27] = tested on: Candida albicans ATCC 37092
[28] = tested on: Neurospora crassa CBS 327-54
Micrococcus luteus A270 = tested on: Micrococcus luteus A270
Aspergillus fumigatus = tested on: Aspergillus fumigatus
Escherichia coli D22 = tested on: Escherichia coli D22

SMILES: CC[C@H](C)[C@H](NC(=O)[C@H](C)N)C(=O)N[C@@H](Cc1ccccc1)C(=O)N[C@H](C(=O)N[C@@H](Cc1ccccc1)C(=O)N[C@H](C(=O)N[C@@H](CCCN=C(N)N)C(=O)N[C@@H](Cc1c[nH]c2ccccc12)C(=O)N[C@@H](CC(C)C)C(=O)N[C@@H](CC(C)C)C(=O)N[C@@H](CCCCN)C(=O)N[C@@H](CC(C)C)C(=O)NCC(=O)N[C@@H](Cc1cnc[nH]1)C(=O)N[C@@H](Cc1cnc[nH]1)C(=O)NCC(=O)N[C@@H](CCCN=C(N)N)C(=O)O)[C@@H](C)CC)[C@@H](C)CC [AIFIFIRWLLKLGHHGR]
MIC [1]: 8 µM (≈ 16.6 µg/mL)
MIC [2]: 4 µM (≈ 8.31 µg/mL)
MIC [3]: 4 µM (≈ 8.31 µg/mL)
MIC [4]: 16 µM (≈ 33.2 µg/mL)

SMILES: CC(C)[C@H](NC(=O)[C@H](CCCCN)NC(=O)[C@@H](NC(=O)[C@@H](NC(=O)[C@H](CCC(=O)O)NC(=O)[C@H](CC(N)=O)NC(=O)[C@H](CCC(=O)O)NC(=O)[C@H](CCCCN)NC(=O)[C@H](CC(=O)O)NC(=O)[C@H](CC(=O)O)NC(=O)[C@H](CCC(=O)O)NC(=O)[C@H](CCC(=O)O)NC(=O)[C@H](CCC(=O)O)NC(=O)[C@@H](NC(=O)[C@H](CCCCN)NC(=O)[C@H](CC(=O)O)NC(=O)[C@H](CC(=O)O)NC(=O)[C@@H](N)CC(=O)O)[C@@H](C)O)[C@@H](C)O)[C@@H](C)O)C(=O)N[C@H](C(=O)N[C@@H](CCC(=O)O)C(=O)O)C(C)C [DDDKTEEEDDKENETTKVVE]
MIC [5]: 42.3 µM (≈ 100 µg/mL)
MIC (Azotobacter vinelandii): ≥ 84.6 µM

SMILES: CC[C@H](C)[C@H](NC(=O)CN)C(=O)N[C@@H](CC(C)C)C(=O)N[C@@H](CCCCN)C(=O)N[C@H](C(=O)N[C@H](C(=O)N[C@@H](CCCCN)C(=O)N[C@@H](CO)C(=O)N[C@H](C(=O)N[C@@H](C)C(=O)N[C@@H](CO)C(=O)N[C@@H](CCCCN)C(=O)N[C@@H](CC(C)C)C(=O)N[C@@H](CCCCN)C(=O)N[C@@H](CCCN=C(N)N)C(=O)N[C@@H](CCCCN)C(=O)N[C@@H](C)C(=O)N[C@@H](CCCCN)C(=O)O)[C@@H](C)CC)[C@@H](C)CC)[C@@H](C)O [GILKTIKSIASKLKRKAK]
MIC (Escherichia coli 4530): 25 µM (≈ 49.6 µg/mL)
MIC [6]: ≥ 50 µM
MIC [7]: 1.56 µM (≈ 3.09 µg/mL)
MIC [8]: ≥ 50 µM
MIC [9]: 3.12 µM (≈ 6.19 µg/mL)
MIC [10]: 3.12 µM (≈ 6.19 µg/mL)
MIC [11]: > 25.2 µM
MIC (Escherichia coli 170): 1.56 µM (≈ 3.09 µg/mL)
MIC [12]: > 25.2 µM
MIC [13]: 1.56 µM (≈ 3.09 µg/mL)
MIC (Salmonella typhimurium): 1.6 µM (≈ 3.17 µg/mL)
MIC [14]: 25 µM (≈ 49.6 µg/mL)
MIC (Acinetobacter baumannii): 2.21 µM (≈ 4.38 µg/mL)
MIC [15]: 25.2 µM (≈ 50 µg/mL)

SMILES: CC[C@H](C)[C@H](NC(=O)[C@H](C)NC(=O)[C@@H]1CCCN1C(=O)[C@@H](NC(=O)[C@@H](NC(=O)[C@H](Cc1cnc[nH]1)NC(=O)[C@H](C)NC(=O)[C@H](C)NC(=O)[C@@H](NC(=O)[C@H](CCCCN)NC(=O)[C@H](C)NC(=O)[C@H](CC(C)C)NC(=O)[C@@H](NC(=O)CNC(=O)[C@H](Cc1ccccc1)NC(=O)[C@H](CC(C)C)NC(=O)CN)C(C)C)C(C)C)C(C)C)C(C)C)C(=O)N[C@@H](C)C(=O)N[C@@H](CCCCN)C(=O)N[C@@H](Cc1cnc[nH]1)C(=O)N[C@@H](Cc1ccccc1)C(N)=O [GLFGVLAKVAAHVVPAIAKHF]
MIC [16]: ≥ 32 µM
MIC [17]: 4 µM (≈ 8.58 µg/mL)
MIC [18]: 16 µM (≈ 34.3 µg/mL)
MIC [19]: 4 µM (≈ 8.58 µg/mL)

SMILES: CSCC[C@H](NC(=O)CNC(=O)[C@@H](NC(=O)[C@@H]1CCCN1C(=O)[C@H](CCSC)NC(=O)CNC(=O)[C@H](CC(N)=O)NC(=O)[C@H](CC(N)=O)NC(=O)[C@H](Cc1ccc(O)cc1)NC(=O)[C@@H](NC(=O)[C@H](CCCN=C(N)N)NC(=O)[C@H](CS)NC(=O)[C@H](CCCN=C(N)N)NC(=O)[C@H](Cc1cnc[nH]1)NC(=O)[C@H](CCCCN)NC(=O)[C@H](CCCCN)NC(=O)[C@H](CCCN=C(N)N)NC(=O)[C@@H](N)CCCCN)C(C)C)[C@@H](C)O)C(=O)N[C@@H](Cc1ccc(O)cc1)C(=O)N[C@@H](CCCN=C(N)N)C(=O)N[C@@H](Cc1c[nH]c2ccccc12)C(=O)N[C@@H](CS)C(=O)O [KRKKHRCRVYNNGMPTGMYRWC]
MIC [20]: 8 µM (≈ 22.3 µg/mL)

SMILES: CC[C@H](C)[C@H](NC(=O)[C@@H]1CCCN1C(=O)[C@H](CC(C)C)NC(=O)[C@@H](N)CC(C)C)C(=O)N[C@H](C(=O)N[C@@H](C)C(=O)N[C@@H](CC(N)=O)C(=O)N[C@@H](CC(C)C)C(=O)N[C@@H](CC(C)C)C(=O)N[C@@H](CCCCN)C(=O)N[C@@H](C)C(=O)N[C@@H](CC(C)C)C(=O)N[C@@H](CC(C)C)C(=O)O)C(C)C [LLPIVANLLKALL]
MIC [21]: 3.6 µM (≈ 5 µg/mL)
MIC [22]: 7.19 µM (≈ 10 µg/mL)

The remaining lines, values ahead:

MIC (Staphylococcus aureus): 6.19 µM (≈ 9.99 µg/mL)
MIC (Escherichia coli W160-37): 9.29 µM (≈ 15 µg/mL)
SMILES: CC[C@H](C)[C@H](N)C(=O)N[C@@H](CC(C)C)C(=O)N1CCC[C@H]1C(=O)N[C@@H](Cc1c[nH]c2ccccc12)C(=O)N[C@@H](CCCCN)C(=O)N[C@@H](CC(C)C)C(=O)N1CCC[C@H]1C(=O)N[C@@H](CC(C)C)C(=O)N[C@@H](CC(C)C)C(=O)N1CCC[C@H]1C(=O)N[C@@H](CC(C)C)C(=O)N[C@@H](CCCN=C(N)N)C(=O)N[C@@H](CCCN=C(N)N)C(N)=O [ILPWKLPLLPLRR]

MIC [23]: 1.4 µM and 3.2 µM
MIC [24]: 8.1 µM and 17.5 µM
MIC [7]: 39 µM and 33.6 µM
MIC [25]: 14.1 µM and 13.1 µM
MIC [11]: 4.1 µM and 8.7 µM
MIC [26]: 10.2 µM and 18.4 µM
MIC [27]: 9 µM and 17.4 µM
SMILES: CC(C)C[C@H](NC(=O)[C@H](CCCN=C(N)N)NC(=O)[C@H](CCCN=C(N)N)NC(=O)[C@H](Cc1ccc(O)cc1)NC(=O)[C@H](CC(C)C)NC(=O)[C@@H](N)CCCN=C(N)N)C(=O)N[C@@H](Cc1ccc(O)cc1)C(=O)N[C@@H](CCCN=C(N)N)C(N)=O [RLYRRLYR]

MIC [28]: 5 µM (≈ 11.8 µg/mL)
MIC (Micrococcus luteus A270): 2 µM (≈ 4.71 µg/mL)
MIC (Aspergillus fumigatus): ≥ 80 µM
MIC (Escherichia coli D22): ≥ 40 µM
SMILES: CSCC[C@H](NC(=O)[C@H](CO)NC(=O)[C@@H](N)CO)C(=O)N[C@@H](CCCCN)C(=O)N[C@@H](CC(C)C)C(=O)N[C@@H](CO)C(=O)N[C@@H](Cc1ccccc1)C(=O)N[C@@H](CCCN=C(N)N)C(=O)N[C@@H](C)C(=O)N[C@@H](CCCN=C(N)N)C(=O)N[C@@H](C)C(=O)N[C@@H](Cc1ccc(O)cc1)C(=O)N[C@@H](CO)C(=O)N[C@@H](Cc1ccccc1)C(=O)N[C@@H](CCCN=C(N)N)C(=O)NCC(=O)N1CCC[C@H]1C(=O)NCC(=O)N1CCC[C@H]1C(=O)N[C@@H](CCC(N)=O)C(=O)N[C@@H](CC(C)C)C(=O)O [SSMKLSFRARAYSFRGPGPQL]
